Experimental data reported in patent US20090176950A1, “METAL HYDRIDE COMPLEX, METHOD OF HYD[…]-OPENING POLY[…] OF CYCLOOLEFIN, AND PROCESS FOR PRODUCING PRODUCT OF HYD[…] RING-OPENING POLY[…] OF CYCLOOLEFIN” (JSR CORPORATION, priority 2005, published 2009).

Key:
[1] = autoclave hydrogenation of DNM/DCP polymer (Example 9 procedure)
Experimental: (§1) ^1H-NMR was measured by using AVANCE500 manufactured by BRUKER as a nuclear magnetic resonance spectrometer (NMR) with chloroform-d as a measuring solvent. The composition of a monomer was calculated from the integral value of the vinylene group at 5.1 to 5.8 ppm, the methoxy group at 3.7 ppm and the aliphatic proton at 0.6 to 2.8 ppm, and then the hydrogenation rate was calculated.
Into a reaction vessel substituted with nitrogen were charged 75 parts by weight of 8-methoxycarbonyl-8-methyltetracyclo[4.4.0.1^2,5.1^7,10]-3-dodecene (DNM) and 25 parts by weight of dicyclopentadiene (DCP) as monomers, 6 parts by weight of 1-butene as a molecular weight adjusting agent and 170 parts by weight of toluene, and the resultant mixture was heated to 100° C. To this mixture were added 0.005 parts by weight of triethylaluminum, 0.005 parts by weight of methanol-modified WCl6 (anhydrous methanol:PhPOCl2:WCl6=103:630:427 (weight ratio)), and the reaction was carried out at 100° C. for one hour to obtain a polymer. The conversion was 100%.
Next, into a pressure-proof autoclave with a design temperature of 185° C. and a capacity of 1.25 m^3 were charged a solution of the polymer obtained above equivalent to 350 kg of the solid component and as a hydrogenation catalyst 0.0335 parts by weight of RuH(CO)[P(C6H5)]2(OCO-p-Ph-n-C5H13) of which saturation solubility to toluene at 25° C. is 5% by weight based on 100 parts by weight equivalent to the polymer solid component conversion, and the autoclave was heated to 100° C. Then, hydrogen gas was introduced to the autoclave to increase the pressure to 10 MPa. The maximum attained temperature during the hydrogenation reaction was 179° C. The theoretical value of generated heat was calculated from DNM=129.3 kcal/kg and DCP=452.3 kcal/kg. Thereafter, the reaction was carried out at 165° C. for 3 hours while maintaining the pressure at 10 MPa to obtain a hydrogenated product. […]

[2] = hydrogenation of ring-opening polymer with the complex as hydrogenation catalyst (Example 4 procedure); settings: 0.06 parts complex per 1000 parts polymer solution, hydrogen 100 kg/cm^2, 165° C., 3 hours, 1H-NMR
Experimental: Into a reaction vessel substituted with nitrogen were charged 250 parts of 8-methyl-8-methoxycarbonyltetracyclo[4.4.0.1^2,5.1^7,10]-3-dodecene, 18 parts of 1-hexene (molecular weight adjusting agent) and 750 parts of toluene and the resulting solution was heated to 80° C. Thereafter, to the solution in the reaction vessel were added 0.62 parts of a toluene solution of triethylaluminum (1.5 mol/L) as a polymerization catalyst and 3.7 parts of a toluene solution (concentration: 0.05 mol/L) of tungsten hexachloride modified with t-butanol and methanol (t-butanol:methanol:tungsten=0.35 mol:0.3 mol:1 mol). The ring-opening copolymerization reaction was carried out by heating and stirring this system at 80° C. for 3 hours to obtain a ring-opening metathesis polymer solution of 8-methyl-8-methoxycarbonyltetracyclo[4.4.0.1^2,5.1^7,10]-3-dodecene. The polymerization conversion rate in this polymerization reaction was 97%.
Into an autoclave was charged 1000 parts of the ring-opening polymer solution obtained above and to this solution was added as a hydrogenation catalyst a toluene solution of 0.5% by weight of the ruthenium hydride complex obtained in Example 1 in an amount (12 parts) so that the amount of added complex was 0.06 parts. The hydrogenation reaction was carried out by heating and stirring for 3 hours under the conditions of a hydrogen gas pressure of 100 kg/cm^2 and a reaction temperature of 165° C. The resulting reaction solution (hydrogenated polymer solution) was cooled and then the hydrogen gas was released. This reaction solution was poured into a large amount of methanol to separate and collect a coagulated substances which was dried to obtain a hydrogenated polymer.

[3] = autoclave hydrogenation of DNM/DCP/NB polymer (Example 10 procedure); settings: gelation inhibitor
Experimental: as §1
A hydrogenated product was obtained in the same way as Example 1 except that in Example 9, there were charged 65 parts by weight of 8-methoxycarbonyl-8-methyltetracyclo[4.4.0.1^2,5.1^7,10]-3-dodecene (DNM), 25 parts by weight of dicyclopentadiene (DCP) and 10 parts by weight of norbornene (NB) as monomers and 190 parts by weight of toluene to synthesize a polymer, and the charged amount equivalent to the solid component of the polymer was changed to 330 kg in the hydrogenation reaction. […] The maximum attained temperature during the hydrogenation reaction was 179° C. The theoretical value of generated heat was calculated from DNM=129.3 kcal/kg, DCP=452.3 kcal/kg and NB=319.3 kcal/kg.

[4] = solubility of the metal hydride complex to toluene; type: physicochemical
[5] = hydrogenation of ring-opening copolymer with the complex as catalyst (Example 8); settings: 0.06 parts complex, hydrogen 100 kg/cm^2, 165° C., 3 hours
Description: A ring-opening copolymer solution was obtained by carrying out the same polymerization operations as those in Example 4 except that 190 parts of 8-methyl-8-methoxycarbonyltetracyclo[4.4.0.1^2,5.1^7,10]-3-dodecene and 60 parts of spiro[fluorene-9,8′-tricyclo[4.3.0.1^2,5]dec-3-ene were used in place of 250 parts of 8-methyl-8-methoxycarbonyltetracyclo[4.4.0.1^2,5.1^7,10]-3-dodecene. The polymerization conversion rate in this polymerization reaction was 96%.
(§2) Into an autoclave was charged 1000 parts of the ring-opening copolymer solution thus obtained and to the ring-opening polymer solution was added a toluene solution of 1.0% by weight of the ruthenium hydride complex obtained in Example 2 in an amount (6 parts) so that the amount of added complex was 0.06 parts. The hydrogenation reaction was carried out by heating and stirring for 3 hours under the conditions of a hydrogen gas pressure of 100 kg/cm^2 and a reaction temperature of 165° C. The resulting reaction solution (hydrogenated polymer solution) was cooled and then the hydrogen gas was released. […] This polymer was analyzed by ^1H-NMR and the hydrogenation rate was determined by the ratio of the integral value of the saturated hydrocarbons at 0.6 to 2.5 ppm to the integral value of the unsaturated hydrocarbons at 5.0 to 5.6 ppm.

[6] = hydrogenation of ring-opening copolymer with the complex as catalyst (Example 7); settings: 0.06 parts complex, hydrogen 100 kg/cm^2, 165° C., 3 hours
Description: A ring-opening polymer solution was obtained by carrying out the same polymerization operations as those in Example 4 except that 187.5 parts of 8-methyl-8-methoxycarbonyltetracyclo[4.4.0.1^2,5.1^7,10]-3-dodecene and 62.5 parts of tricyclo[4.3.0.1^2,5]deca-3,8-diene were used in place of 250 parts of 8-methyl-8-methoxycarbonyltetracyclo[4.4.0.1^2,5.1^7,10]-3-dodecene. The polymerization conversion rate of this polymerization reaction was 98%.
as §2, with “ring-opening copolymer” for “ring-opening polymer”, “conditions including” for “conditions of”

[7] = hydrogen introduced at 100° C., 10 MPa, 165° C. for 3 hours

Compound: [C-]#[O+].[Cl][RuH].c1ccc(P(c2ccccc2)c2ccccc2)cc1.c1ccc(P(c2ccccc2)c2ccccc2)cc1.c1ccc(P(c2ccccc2)c2ccccc2)cc1 [RuHCl(CO)(PPh3)3, reference compound]
- olefinic unsaturated bonds in the main chain hydrogenated (hydrogenation rate) [1, 7]: ≥ 99.9%
- olefinic unsaturated bonds in the main chain hydrogenated (hydrogenation rate) ([1]; hydrogen introduction temperature 150° C., 600 parts toluene, gelation inhibitor): ≥ 99.9%
- hydrogenation rate of the hydrogenated polymer [2]: 99.75%
- olefinic unsaturated bonds in the main chain hydrogenated (hydrogenation rate) ([3]; hydrogen introduction temperature 100° C.): ≥ 99.9%
- olefinic unsaturated bonds in the main chain hydrogenated (hydrogenation rate) ([3]; hydrogen introduction temperature 150° C., 700 parts toluene): ≥ 99.9%
- solubility to toluene at 20° C. [4]: 0.03 % by weight
- saturation solubility to toluene at 25° C. [4]: 0.05 % by weight
- saturation solubility to toluene ([4]; temperature not given): 0.05 % by weight
- hydrogenation rate of the main chain of the copolymer [5]: 99.30%

Compound: RuH(CO)[P(C6H5)]2(OCO-p-Ph-n-C5H13)
- olefinic unsaturated bonds in the main chain hydrogenated (hydrogenation rate) [1, 7]: ≥ 99.9%
- saturation solubility to toluene at 25° C. [4]: 5 % by weight

Compound: RuH(OCOPh)(CO)(PPh3)2 [Example 1]
- hydrogenation rate of the hydrogenated polymer [2]: 99.99%
- solubility to toluene at 20° C. [4]: 0.5 % by weight

Compound: RuH(OCOPh-C5H11)(CO)(PPh3)2 [Example 2]
- hydrogenation rate of the hydrogenated polymer [2]: 99.95%
- hydrogenation rate of the main chain of the copolymer [6]: 99.97%
- hydrogenation rate of the unsaturated double bonds derived from the side chain of tricyclo[4.3.0.1^2,5]deca-3,8-diene [6]: ≥ 99.99%
- solubility to toluene at 20° C. [4]: 1.0 % by weight
- hydrogenation rate of the main chain of the copolymer [5]: 99.93%

Compound: RuH(OCOPh-C8H17)(CO)(PPh3)2 [Example 3]
- hydrogenation rate of the hydrogenated polymer [2]: 99.90%
- solubility to toluene at 20° C. [4]: 5.0 % by weight
